Assay [1] concerns isolated guinea pig ileum. In words: Agonist action on isolated guinea pig ileum. As to conditions: negative logarithm of the dose which produces 50% of maximum effect. The method, then: (§1) The interaction of the compounds with different receptors was assessed on isolated guinea pig ileum according to the following method.
(§2) Guinea pig ileum segments measuring 2.5-3 cm were washed and immediately suspended in a bath containing 10 ml of Tyrode's solution at 37° C. aerated with a mixture of oxygen (95%) and carbon dioxide (5%). After a stabilization period of at least 30 minutes, the contractions were recorded, maintaining the preparation under constant tension of 1 g using a gauge connected to a polygraph. The agonist action was assessed by leaving the compound in contact with the isolated tissue for a period necessary for expressing the maximal contraction; the preparation was then washed with Tyrode's solution. The next dose was added to the bath only after the preparation had returned to its base line. As a reference product, arecoline was employed. The antagonist action was assessed on contractions induced by acetyl choline (1×10^-6 M), histamine (1×10^-5 M) and barium chloride (2×10^-4 M). Atropine, diphenhydramine and papaverine were emplohyed as reference products. The contact time before adding the agonist was one minute.
(§3) For each compound, the dose-response curves are obtained with 4 to 6 different concentrations and 3 to 5 independent tests. The agonist activity is expressed by pD2 (negative logarithm of the dose which produces 50% of maximum effect). The antagonist activity is expressed by IC50 (concentration inhibiting 50% of the maximal response).

In assay [2] the test system is isolated guinea pig ileum, contractions induced by acetyl choline. In words: Antagonist action on contractions induced by acetyl choline, isolated guinea pig ileum. To be noted: acetyl choline 1×10^-6 M; contact time one minute; 37° C.; read-out: Antagonist to different agents (IC50), ACh. The method, then: as §1, §2, §3
Assay [3] has as its system cholinomimetic effects induced by carbachol. The assay can be described thus: In vivo anticholinergic action: inhibition of cholinomimetic effects induced by carbachol in mice. To be noted: Mus musculus, ip, mice, i.p. 30 minutes before carbachol 1 mg/kg s.c.; for ED (1 degree C): rectal temperature, read-out: Body temperature: dose increasing by 1° C. the hypothermic effect induced by the cholinergic agent. More on the design: species or system CD1 male mice. How it is done: The anticholinergic activity of the compounds was determined by assessing the capacity to inhibit the cholinomimetic effects induced by carbachol. Atropine sulphate was employed as a reference product.
CD1 male mice weighing 25 to 30 g were used. They were distributed in groups of 6 animals and treated intraperitoneally with scalar doses of the products or 0.25% Methocel for the controls. 12 animals were used for each dose. 30 minutes after administration of the compounds, the mice were injected subcutaneously with 1 mg/kg of carbachol dissolved in physiological saline.
Each animal was examined 30 minutes after the injection of carbachol to assess the presence of diarrhoea, salivation and eye watering; in addition, the body temperature was measured by means of a thermocouple inserted 1.5 cm into the rectum.
For each compound, we have determined and recorded in the following table the dose capable of inhibiting the appearance of the carbachol-induced cholinometric symptoms in 50% of the animals, and of increasing by 1° C. the hypothermic effect induced by the cholinergic agent.

The target in assay [4] is T1, opiate receptors mu (Homo sapiens, UniProt P35372).
T1 construct: from tissue
T1 sequence (P35372 whole entry): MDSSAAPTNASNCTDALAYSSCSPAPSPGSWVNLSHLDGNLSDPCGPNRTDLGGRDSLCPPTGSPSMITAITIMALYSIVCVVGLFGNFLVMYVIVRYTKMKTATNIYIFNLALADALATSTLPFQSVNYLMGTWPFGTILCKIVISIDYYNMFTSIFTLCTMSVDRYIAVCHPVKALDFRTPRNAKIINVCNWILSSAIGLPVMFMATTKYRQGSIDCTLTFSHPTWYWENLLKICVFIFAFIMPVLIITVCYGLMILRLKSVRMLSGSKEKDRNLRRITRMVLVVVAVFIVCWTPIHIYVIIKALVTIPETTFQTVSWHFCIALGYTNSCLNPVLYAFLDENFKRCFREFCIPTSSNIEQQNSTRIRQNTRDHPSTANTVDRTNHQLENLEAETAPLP
In words: Binding to other brain receptors: opiate mu. As to conditions: negligible affinity. The source says: (§4) 1) Binding to different brain receptors.

Assay [5] has as its target Muscarinic receptor 2. The assay can be described thus: Binding to muscarinic receptor 2 ([^3 H]quinuclidinyl benzylate), rat brain. As to conditions: 0.3 nM [^3 H]quinuclidinyl benzylate, 60 minutes at 25° C., pH 7.5, rat brain; read-out: Affinity for M2 muscarinic receptors, [^3 H]quinuclidinyl benzylate, IC50. How it is done:
as §4
The preparation is performed from brains of male rats weighing 150 to 200 g (Iffa Credo).
The brains are ground (Teflon-glass) in 0.32M sucrose solution. The homogenate is centrifuged for 10 minutes at 1,000 g (0°-4° C.)
The supernatant obtained is collected and centrifuged at 30,000 g for 15 minutes (0°-4° C.).
The regulus is resuspended in 50 mM Tris buffer pH 7.5 and the new homogenate is centrifuged again at 30,000 g for 15 minutes (0°-4° C.).
After removal of the supernatant, the regulus may be used immediately or stored for up to 1 month at -30° C.
For an experiment, the regulus are first thawed, if necessary, at room temperature and resuspended using a Dounce in 50 mM Tris buffer pH 7.5. 2 ml aliquots are incubated for 60 minutes at 25° C. in the presence of 0.3 nM [^3 H]quinuclidinyl benzylate, either alone, or with the test product, or with 10^-5 M benzatropine to determine the non-specifically bound radioactivity.
At the end of the incubation period, the incubate tubes are cooled to 4° C. and filtered rapidly on Whatman GF/C filters. The filters are rinsed with 3×5 ml of […] Tris buffer pH 7.5 and the measurements are then performed by liquid scintillation (Henry I. Yamamura, Solomon H. Snyder, Proc. Nat. Acad. Sc. (1974) 71, No. 5, 1725-1729).
The results are expressed as an IC50 (concentration needed to inhibit by 50% the specifically bound radioactivity).

Setting [6] is: read-out: Dose inhibiting carbachol-induced diarrhoea in 50% of the animals.
Setting [7] is: read-out: Dose inhibiting carbachol-induced eye watering in 50% of the animals.
The mark [8] stands for this setting: read-out: Dose inhibiting carbachol-induced salivation in 50% of the animals.

Like-named read-outs stand apart in the source and are kept apart here.

For orientation: IC50 means the point on the concentration scale where inhibition reaches its midpoint. `CCN(CC)c1ccc(S(=O)(=O)N2CCCCC2=O)cc1` [Example 2, 1-[4-(Diethylamino)benzenesulphonyl]-2-piperidinone]: in assay [1], the “Agonist action pD2” value is less than 5. Further, the half-maximal inhibitory concentration (IC50) in assay [2] was 0.93 µM; in assay [4], 5 to 10 µM; in assay [5] it was 4.6 µM. Further, the ED50 in assay [3] (setting [6]) was 5 mg/kg; in assay [3] (setting [7]), greater than 50 mg/kg; in assay [3] (setting [8]), greater than 50 mg/kg. For the same compound, the ED (1 degree C) in assay [3] is greater than 50 mg/kg.
`O=C1CCCCN1S(=O)(=O)c1ccc(N2CCCCC2)cc1` [Example 4, 1-[4-(1-Piperidinyl)benzenesulphonyl] -2-piperidinone]: the “Agonist action pD2” value in assay [1] was less than 5. The IC50 in assay [2] was 1.5 µM; in assay [4], 5 to 10 µM; in assay [5], 2.24 µM. In addition, the ED50 in assay [3] (setting [6]) is 6 mg/kg; in assay [3] (setting [7]), greater than 50 mg/kg; in assay [3] (setting [8]), greater than 50 mg/kg. For the same compound, in assay [3], the ED (1 degree C) was greater than 50 mg/kg.
Turning to `O=C1CCCCN1S(=O)(=O)c1ccc(N2CCCCCC2)cc1` [Example 5, 1-[4-(1-Hexahydroazepinyl)benzenesulphonyl]-2-piperidinone], the “Agonist action pD2” value in assay [1] is less than 5. For the same compound, the IC50 is 0.27 µM in assay [2], 5 to 10 µM in assay [4] and 0.66 µM in assay [5]. In addition, the ED50 is 2 mg/kg in assay [3] (setting [6]) and greater than 50 mg/kg in assay [3] (setting [7]). The ED (1 degree C) in assay [3] came out at 50 mg/kg.
